According to patent publication US20170050957A1, “4-AMINO-6-(HETEROCYCLIC)PICOLINATES AND 6-AMINO-2-(HETEROCYCLIC)PYRIMIDINE-4-CARBOXYLATES AND THEIR USE AS HERBICIDES” (Dow AgroSciences LLC, priority 2013, published 2017):

Test system: Wheat and Barley and test plant species
Test: Post-emergent Test III, herbicidal activity in wheat and barley (Table 17; visual injury, GR20/GR50/GR80/GR90)
Assay type: in vivo
Conditions: 21 d; for Visual Growth Reduction (%) 21 Days After Application, CIRAR / Visual Growth Reduction (%) 21 Days After Application, GALAP / Visual Growth Reduction (%) 21 Days After Application, HORVS / Visual Growth Reduction (%) 21 Days After Application, KCHSC / Visual Growth Reduction (%) 21 Days After Application, LAMPU / Visual Growth Reduction (%) 21 Days After Application, MATCH / Visual Growth Reduction (%) 21 Days After Application, PAPRH / Visual Growth Reduction (%) 21 Days After Application, SASKR / Visual Growth Reduction (%) 21 Days After Application, SINAR / Visual Growth Reduction (%) 21 Days After Application, TRZAS / Visual Growth Reduction (%) 21 Days After Application, VERPE / Visual Growth Reduction (%) 21 Days After Application, VIOTR: post-emergent
Experimental: Post-emergent Test III. Seeds of the desired test plant species were planted in Sun Gro MetroMix® 306 planting mixture, which typically has a pH of 6.0 to 6.8 and an organic matter content of about 30 percent, in plastic pots with a surface area of 103.2 square centimeters (cm^2). When required to ensure good germination and healthy plants, a fungicide treatment and/or other chemical or physical treatment was applied. The plants were grown for 7-36 days (d) in a greenhouse with an approximate 14 hour (h) photoperiod which was maintained at about 18° C. during the day and 17° C. during the night. Nutrients and water were added on a regular basis and supplemental lighting was provided with overhead metal halide 1000-Watt lamps as necessary. The plants were employed for testing when they reached the second or third true leaf stage.
A weighed amount, determined by the highest rate to be tested, of each test compound was placed in a 25 mL glass vial and was dissolved in 4 mL of a 97:3 v/v mixture of acetone and DMSO to obtain concentrated stock solutions. […] The concentrated stock solutions obtained were diluted with 20 mL of an aqueous mixture containing acetone, water, isopropyl alcohol, DMSO, Agri-Dex crop oil concentrate, and X-77 surfactant in a 48:39:10:1.5:1.5:0.02 v/v ratio to obtain spray solutions containing the highest application rates. Additional application rates were obtained by serial dilution of 12 mL of the high rate solution into a solution containing 2 mL of 97:3 v/v mixture of acetone and DMSO and 10 mL of an aqueous mixture containing acetone, water, isopropyl alcohol, DMSO, Agri-Dex crop oil concentrate, and X-77 surfactant in a 48:39:10:1.5:1.5:0.02 v/v ratio to obtain 1/2×, 1/4×, 1/8× and 1/16× rates of the high rate. Compound requirements are based upon a 12 mL application volume at a rate of 187 liters per hectare (L/ha). Formulated compounds were applied to the plant material with an overhead Mandel track sprayer equipped with 8002E nozzles calibrated to deliver 187 L/ha over an application area of 0.503 square meters at a spray height of 18 inches (43 cm) above the average plant canopy height. Control plants were sprayed in the same manner with the solvent blank.
The treated plants and control plants were placed in a greenhouse as described above and watered by subirrigation to prevent wash-off of the test compounds. After 21 d, the condition of the test plants as compared with that of the untreated plants was determined visually and scored on a scale of 0 to 100 percent where 0 corresponds to no injury and 100 corresponds to complete kill. By applying the well-accepted probit analysis as described by J. Berkson in Journal of the American Statistical […], 48, 565 (1953) and by D. Finney in “Probit Analysis” Cambridge University Press (1952), the above data can be used to calculate GR20, GR50, GR80 and GR90 values, which are defined as growth reduction factors that correspond to the effective dose of herbicide required to kill or control 20 percent, 50 percent, 80 percent or 90 percent, respectively, of a target plant.

`COC(=O)c1nc(-c2ccc3cc[nH]c3c2F)c(F)c(N)c1Cl` [Compound 1.15, Methyl 4-amino-3-chloro-5-fluoro-6-(7-fluoro-1H-indol-6-yl)picolinate] was tested, and the “Visual Growth Reduction (%) 21 Days After Application, CIRAR” value (CIRAR, 17.5 g ai/ha) was “F (30-44)”, the “Visual Growth Reduction (%) 21 Days After Application, CIRAR” value (CIRAR, 35 g ai/ha) was “D (60-74)” and the “Visual Growth Reduction (%) 21 Days After Application, CIRAR” value (CIRAR, 70 g ai/ha) was “C (75-84)”. The “GR50, CIRAR” value (CIRAR, dose for 50 percent growth reduction, probit analysis) was 30 g ai/ha, the “GR80, CIRAR” value (CIRAR, dose for 80 percent growth reduction, probit analysis) was 70 g ai/ha and the “GR90, CIRAR” value (CIRAR, dose for 90 percent growth reduction, probit analysis) was 109 g ai/ha. The “Visual Growth Reduction (%) 21 Days After Application, GALAP” value (GALAP, 17.5 g ai/ha) was “D (60-74)”, the “Visual Growth Reduction (%) 21 Days After Application, GALAP” value (GALAP, 35 g ai/ha) was “B (85-94)” and the “Visual Growth Reduction (%) 21 Days After Application, GALAP” value (GALAP, 70 g ai/ha) was “A (95-100)”. The “GR50, GALAP” value (GALAP, dose for 50 percent growth reduction, probit analysis) was 9 g ai/ha, the “GR80, GALAP” value (GALAP, dose for 80 percent growth reduction, probit analysis) was 23 g ai/ha and the “GR90, GALAP” value (GALAP, dose for 90 percent growth reduction, probit analysis) was 37 g ai/ha. The “Visual Growth Reduction (%) 21 Days After Application, HORVS” value (HORVS, 17.5 g ai/ha) was “F (30-44)”, the “Visual Growth Reduction (%) 21 Days After Application, HORVS” value (HORVS, 35 g ai/ha) was “E (45-59)” and the “Visual Growth Reduction (%) 21 Days After Application, HORVS” value (HORVS, 70 g ai/ha) was “E (45-59)”. For the same molecule, the “GR20, HORVS” value (HORVS, dose for 20 percent growth reduction, probit analysis) was 8 g ai/ha, the “Visual Growth Reduction (%) 21 Days After Application, KCHSC” value (KCHSC, 17.5 g ai/ha) was “D (60-74)” and the “Visual Growth Reduction (%) 21 Days After Application, KCHSC” value (KCHSC, 35 g ai/ha) was “B (85-94)”. For the same molecule, the “Visual Growth Reduction (%) 21 Days After Application, KCHSC” value (KCHSC, 70 g ai/ha) was “B (85-94)”, the “GR50, KCHSC” value (KCHSC, dose for 50 percent growth reduction, probit analysis) was 6 g ai/ha and the “GR80, KCHSC” value (KCHSC, dose for 80 percent growth reduction, probit analysis) was 28 g ai/ha. For the same molecule, the “GR90, KCHSC” value (KCHSC, dose for 90 percent growth reduction, probit analysis) was 67 g ai/ha, the “Visual Growth Reduction (%) 21 Days After Application, LAMPU” value (LAMPU, 17.5 g ai/ha) was “A (95-100)” and the “Visual Growth Reduction (%) 21 Days After Application, LAMPU” value (LAMPU, 35 g ai/ha) was “A (95-100)”. For the same molecule, the “Visual Growth Reduction (%) 21 Days After Application, LAMPU” value (LAMPU, 70 g ai/ha) was “A (95-100)”, the “GR50, LAMPU” value (LAMPU, dose for 50 percent growth reduction, probit analysis) was 0.10 g ai/ha and the “GR80, LAMPU” value (LAMPU, dose for 80 percent growth reduction, probit analysis) was 1 g ai/ha. For the same molecule, the “GR90, LAMPU” value (LAMPU, dose for 90 percent growth reduction, probit analysis) was 2 g ai/ha, the “Visual Growth Reduction (%) 21 Days After Application, MATCH” value (MATCH, 17.5 g ai/ha) was “F (30-44)” and the “Visual Growth Reduction (%) 21 Days After Application, MATCH” value (MATCH, 35 g ai/ha) was “E (45-59)”. For the same molecule, the “Visual Growth Reduction (%) 21 Days After Application, MATCH” value (MATCH, 70 g ai/ha) was “D (60-74)”, the “GR50, MATCH” value (MATCH, dose for 50 percent growth reduction, probit analysis) was 45 g ai/ha and the “GR80, MATCH” value (MATCH, dose for 80 percent growth reduction, probit analysis) was over 140 g ai/ha. The “GR90, MATCH” value (MATCH, dose for 90 percent growth reduction, probit analysis) was over 140 g ai/ha, the “Visual Growth Reduction (%) 21 Days After Application, PAPRH” value (PAPRH, 17.5 g ai/ha) was “A (95-100)” and the “Visual Growth Reduction (%) 21 Days After Application, PAPRH” value (PAPRH, 35 g ai/ha) was “A (95-100)”. For the same molecule, the “Visual Growth Reduction (%) 21 Days After Application, PAPRH” value (PAPRH, 70 g ai/ha) was “A (95-100)”, the “GR50, PAPRH” value (PAPRH, dose for 50 percent growth reduction, probit analysis) was 0.06 g ai/ha and the “GR80, PAPRH” value (PAPRH, dose for 80 percent growth reduction, probit analysis) was 1 g ai/ha. For the same molecule, the “GR90, PAPRH” value (PAPRH, dose for 90 percent growth reduction, probit analysis) was 2 g ai/ha, the “Visual Growth Reduction (%) 21 Days After Application, SASKR” value (SASKR, 17.5 g ai/ha) was “C (75-84)” and the “Visual Growth Reduction (%) 21 Days After Application, SASKR” value (SASKR, 35 g ai/ha) was “C (75-84)”. The “Visual Growth Reduction (%) 21 Days After Application, SASKR” value (SASKR, 70 g ai/ha) was “B (85-94)”, the “GR50, SASKR” value (SASKR, dose for 50 percent growth reduction, probit analysis) was 7 g ai/ha and the “GR80, SASKR” value (SASKR, dose for 80 percent growth reduction, probit analysis) was 30 g ai/ha. The “GR90, SASKR” value (SASKR, dose for 90 percent growth reduction, probit analysis) was 95 g ai/ha, the “Visual Growth Reduction (%) 21 Days After Application, SINAR” value (SINAR, 17.5 g ai/ha) was “A (95-100)” and the “Visual Growth Reduction (%) 21 Days After Application, SINAR” value (SINAR, 35 g ai/ha) was “A (95-100)”. For the same molecule, the “Visual Growth Reduction (%) 21 Days After Application, SINAR” value (SINAR, 70 g ai/ha) was “A (95-100)”, the “GR50, SINAR” value (SINAR, dose for 50 percent growth reduction, probit analysis) was 4 g ai/ha and the “GR80, SINAR” value (SINAR, dose for 80 percent growth reduction, probit analysis) was 8 g ai/ha. For the same molecule, the “GR90, SINAR” value (SINAR, dose for 90 percent growth reduction, probit analysis) was 12 g ai/ha, the “Visual Growth Reduction (%) 21 Days After Application, TRZAS” value (TRZAS, 17.5 g ai/ha) was “F (30-44)” and the “Visual Growth Reduction (%) 21 Days After Application, TRZAS” value (TRZAS, 35 g ai/ha) was “E (45-59)”. For the same molecule, the “Visual Growth Reduction (%) 21 Days After Application, TRZAS” value (TRZAS, 70 g ai/ha) was “D (60-74)”, the “GR20, TRZAS” value (TRZAS, dose for 20 percent growth reduction, probit analysis) was 13 g ai/ha and the “Visual Growth Reduction (%) 21 Days After Application, VERPE” value (VERPE, 17.5 g ai/ha) was “A (95-100)”. For the same molecule, the “Visual Growth Reduction (%) 21 Days After Application, VERPE” value (VERPE, 35 g ai/ha) was “A (95-100)”, the “Visual Growth Reduction (%) 21 Days After Application, VERPE” value (VERPE, 70 g ai/ha) was “A (95-100)” and the “GR50, VERPE” value (VERPE, dose for 50 percent growth reduction, probit analysis) was 0.28 g ai/ha. The “GR80, VERPE” value (VERPE, dose for 80 percent growth reduction, probit analysis) was 2 g ai/ha, the “GR90, VERPE” value (VERPE, dose for 90 percent growth reduction, probit analysis) was 6 g ai/ha and the “Visual Growth Reduction (%) 21 Days After Application, VIOTR” value (VIOTR, 17.5 g ai/ha) was “E (45-59)”. The “Visual Growth Reduction (%) 21 Days After Application, VIOTR” value (VIOTR, 35 g ai/ha) was “D (60-74)”, the “Visual Growth Reduction (%) 21 Days After Application, VIOTR” value (VIOTR, 70 g ai/ha) was “C (75-84)” and the “GR50, VIOTR” value (VIOTR, dose for 50 percent growth reduction, probit analysis) was 22 g ai/ha. The “GR80, VIOTR” value (VIOTR, dose for 80 percent growth reduction, probit analysis) was 63 g ai/ha and the “GR90, VIOTR” value (VIOTR, dose for 90 percent growth reduction, probit analysis) was 111 g ai/ha.
